According to US20130123184A1, “METHODS FOR […] OF HUMAN FETAL HEMOGLOBIN” (National Institutes of Health, priority 2007, published 2013):
Entries after “also recorded” stand apart in the source; their conditions may differ.

Columns and labels:
fetal liver cells = assay: toxicity analysis of CFUe colonies (number and size of colonies); format: cell-based, mouse
Protocol: (§1) To determine if romidepsin alters human globin expression erythroid colony forming unit assays were conducted. This involved extracting fetal liver cells from the developing embryo, at a time when both γ and β globin are expressed. Cells were then cultured in a semi-solid media (methyl-cellulose) containing growth factors (SCF and Epo) with or without romidepsin. We harvested CFUe colonies at 2 days of culture (a pool of 10 from each treatment, each treatment was performed in duplicate) and performed an immediate cell lysis and cDNA amplification. The cDNA was then subjected to real-time PCR to determine levels of mouse α, human γ and human β globin gene expression. The cells were treated with a range of romidepsin concentrations from 0.185 nM to 18.5 nM, and the colony assay was performed on 6 separate occasions.
Each colony was also analyzed for toxicity effects. […] Thus globin analysis at this dose is not presented.

fetal hemoglobin = assay: circulating fetal hemoglobin levels in phase II clinical trial patients (CTCL and PTCL); format: in vivo, human; details: at least two months, 44 patients evaluated
Protocol: As part of an ongoing phase II clinical trial into the effects of romidepsin in patients with cutaneous (CTCL) and peripheral (PTCL) T-cell lymphoma, the levels of circulating fetal hemoglobin were determined. From a total of 53 patients in the trial, 44 were evaluated. Romidepsin was administered as a 4 hour infusion on days 1, 8, and 15 of a 28 day cycle with a dose of 14 mg/m^2. Fetal hemoglobin levels were measured during at least two months of treatment with romidepsin. Fetal hemoglobin levels were expressed first as a percent of the patient's total hemoglobin and then corrected (by multiplying the total hemoglobin by percent fetal hemoglobin).

[1] = tested on: human β globin gene expression; assay: erythroid colony forming unit (CFUe) assay, real-time PCR of human β globin gene expression; format: cell-based; details: 0.185 nM or 1.85 nM; relative to mouse α levels and control
Protocol: (§2) Experiments were performed with mice that are transgenic for a yeast artificial chromosome that contains the full human β-globin locus. […] However mice do have the appropriate transcription factors to interpret and express the human globin locus.
as §1
(§3) The results (0.185 nM or 1.85 nM romidepsin) are presented in FIG. 1 relative to mouse α levels, and relative to the control performed in each particular experiment. […] When the 0.185 nM and 1.85 nM data are combined there is a 130-fold increase in γ globin expression, as compared to mouse α globin expression and untreated cells.

[2] = tested on: human γ globin gene expression; assay: erythroid colony forming unit (CFUe) assay, real-time PCR of human γ globin gene expression; format: cell-based, mouse
Protocol: as §2, §1, §3

[3] = fold increase in fetal hemoglobin 0-2, 14 mg/m^2 4 hour infusion days 1, 8, 15 of 28 day cycle
[4] = fold increase in fetal hemoglobin 2-5, 14 mg/m^2
[5] = fold increase in fetal hemoglobin 5-10, 14 mg/m^2
[6] = fold increase in fetal hemoglobin 10-20, 14 mg/m^2
[7] = fold increase in fetal hemoglobin >2, 14 mg/m^2
[8] = fold increase in fetal hemoglobin >5, 14 mg/m^2
[9] = fold increase in fetal hemoglobin >10, 14 mg/m^2
[10] = fold increase in fetal hemoglobin >20, 14 mg/m^2

C/C=C1\NC(=O)[C@H]2CSSCC/C=C/[C@H](CC(=O)N[C@H](C(C)C)C(=O)N2)OC(=O)[C@H](C(C)C)NC1=O [romidepsin, (1S,4S,10S,16E,21R)-7-[(2Z)-ethylidene]-4,21-diisopropyl-2-oxa-12,13-dithia-5,8,20,23-tetraazabicyclo[8.7.6]tricos-16-ene-3,6,9,19,22-pentanone]
total number of colonies or size of CFUe (fetal liver cells; 0.185 nM and 1.85 nM): no differences
toxicity to the fetal liver cells (fetal liver cells; 18.5 nM, accurate data not gathered): toxic
% of patients (fetal hemoglobin; [3]): 23%
Number of patients (fetal hemoglobin; [3]): 10
% of patients (fetal hemoglobin; [4]): 23%
Number of patients (fetal hemoglobin; [4]): 10
% of patients (fetal hemoglobin; [5]): 20%
Number of patients (fetal hemoglobin; [5]): 9
% of patients (fetal hemoglobin; [6]): 23%
Number of patients (fetal hemoglobin; [6]): 10
% of patients (fetal hemoglobin; [7]): 77%
Number of patients (fetal hemoglobin; [7]): 34
% of patients (fetal hemoglobin; [8]): 55%
Number of patients (fetal hemoglobin; [8]): 24
% of patients (fetal hemoglobin; [9]): 34%
Number of patients (fetal hemoglobin; [9]): 15
% of patients (fetal hemoglobin; [10]): 11%
Number of patients (fetal hemoglobin; [10]): 5
β globin gene expression following romidepsin treatment [1]: not affected; also recorded: no change
fold increase in γ globin expression ([2]; 0.185 nM and 1.85 nM data combined, compared to mouse α globin expression and untreated cells, transgenic fetal liver CFUe colonies, 2 days of culture, mean±SEM, n=6): 130 fold
γ globin gene expression following romidepsin treatment ([2]; 0.185 nM or 1.85 nM, relative to mouse α levels and control): increase; also recorded: up-regulation
expression of human globin at the highest doses ([2]; highest doses of romidepsin): lower
